Data from PMC5240995, “Lysine Decarboxylase with an Enhanced Affinity for Pyridoxal 5-Phosphate by Disulfide Bond-Mediated Spatial Reconstitution” (PLoS ONE, 2017).

Target: T1, SrLDC (Pseudoselenomonas ruminantium, UniProt O50657, A225C/T302C)
T1 construct: gene ldc
Assay: isothermal titration calorimetry
Type: binding

T1 sequence (O50657 whole entry A225C/T302C): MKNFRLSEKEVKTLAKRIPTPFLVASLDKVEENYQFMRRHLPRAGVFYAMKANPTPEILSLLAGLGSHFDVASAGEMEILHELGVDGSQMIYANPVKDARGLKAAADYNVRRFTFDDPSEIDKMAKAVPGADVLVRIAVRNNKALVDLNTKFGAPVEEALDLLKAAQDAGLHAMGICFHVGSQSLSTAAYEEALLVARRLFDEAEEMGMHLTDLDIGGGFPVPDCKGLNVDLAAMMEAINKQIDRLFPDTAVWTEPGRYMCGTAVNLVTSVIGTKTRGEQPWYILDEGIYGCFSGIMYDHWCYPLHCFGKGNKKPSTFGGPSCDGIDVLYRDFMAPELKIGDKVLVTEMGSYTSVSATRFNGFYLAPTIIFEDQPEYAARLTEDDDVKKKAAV

Kd: 21 µM
SMILES: Cc1ncc(COP(=O)(O)O)c(C=O)c1O [pyridoxal 5-phosphate]
